Measured values reported in paper PMC7587383, “Pimarane Diterpenoids from the Seeds of Caesalpinia minax as PTP1B Inhibitors and Insulin Sensitizers” (Molecules, 2020).

Target: T1, Protein-tyrosine phosphatase 1B (PTP1B) (Homo sapiens, UniProt P18031)
T1 construct: gene PTPN1
T1 sequence (P18031 1-435): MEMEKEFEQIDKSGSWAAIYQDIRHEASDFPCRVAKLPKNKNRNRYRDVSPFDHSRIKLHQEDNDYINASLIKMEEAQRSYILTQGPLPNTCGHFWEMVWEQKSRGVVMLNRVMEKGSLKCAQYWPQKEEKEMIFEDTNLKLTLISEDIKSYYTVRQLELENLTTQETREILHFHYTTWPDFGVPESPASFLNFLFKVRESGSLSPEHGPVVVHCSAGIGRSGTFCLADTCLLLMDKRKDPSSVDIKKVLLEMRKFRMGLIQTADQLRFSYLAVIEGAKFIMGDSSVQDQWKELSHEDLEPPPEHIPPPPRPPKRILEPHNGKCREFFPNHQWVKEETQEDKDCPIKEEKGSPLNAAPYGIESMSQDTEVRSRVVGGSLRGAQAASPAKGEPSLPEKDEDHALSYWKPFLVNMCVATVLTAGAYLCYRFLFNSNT
Assay: pNPP dephosphorylation assay with human recombinant PTP1B; Lineweaver-Burk and Dixon plots
Format: biochemical

Ki: 13.7 ± 2.72 µM
Compound: C=C[C@@]1(C)CCC2=C(C1)C(=O)C[C@H]1C(C)(C)C[C@H](O)C[C@]21C [compound 1, 2α-hydroxy-7-oxo-pimara-8(9),15-diene]
